Target: IGF-1R (Homo sapiens (Human), UniProt P08069)
Assay: Example B-1: IGF-1R Assay (PC3 cells, IGF1 stimulation, AlphaLISA)
Assay type: cell-based
Conditions: 200 ng/mL IGF1 stimulation, read-out: Biological Activity against IGF-1R IC50
How it was run: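 PC3 cells were serum-starved 2 h, treated with serially diluted compounds for 2 h, then stimulated with IGF1 (200 ng/mL final) for 30 min. Lysates were read by AlphaLISA; % inhibition was calculated relative to vehicle and EC80 controls, with IC50 values binned into ranges.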

Chain of IGF-1R (P08069 31-1367): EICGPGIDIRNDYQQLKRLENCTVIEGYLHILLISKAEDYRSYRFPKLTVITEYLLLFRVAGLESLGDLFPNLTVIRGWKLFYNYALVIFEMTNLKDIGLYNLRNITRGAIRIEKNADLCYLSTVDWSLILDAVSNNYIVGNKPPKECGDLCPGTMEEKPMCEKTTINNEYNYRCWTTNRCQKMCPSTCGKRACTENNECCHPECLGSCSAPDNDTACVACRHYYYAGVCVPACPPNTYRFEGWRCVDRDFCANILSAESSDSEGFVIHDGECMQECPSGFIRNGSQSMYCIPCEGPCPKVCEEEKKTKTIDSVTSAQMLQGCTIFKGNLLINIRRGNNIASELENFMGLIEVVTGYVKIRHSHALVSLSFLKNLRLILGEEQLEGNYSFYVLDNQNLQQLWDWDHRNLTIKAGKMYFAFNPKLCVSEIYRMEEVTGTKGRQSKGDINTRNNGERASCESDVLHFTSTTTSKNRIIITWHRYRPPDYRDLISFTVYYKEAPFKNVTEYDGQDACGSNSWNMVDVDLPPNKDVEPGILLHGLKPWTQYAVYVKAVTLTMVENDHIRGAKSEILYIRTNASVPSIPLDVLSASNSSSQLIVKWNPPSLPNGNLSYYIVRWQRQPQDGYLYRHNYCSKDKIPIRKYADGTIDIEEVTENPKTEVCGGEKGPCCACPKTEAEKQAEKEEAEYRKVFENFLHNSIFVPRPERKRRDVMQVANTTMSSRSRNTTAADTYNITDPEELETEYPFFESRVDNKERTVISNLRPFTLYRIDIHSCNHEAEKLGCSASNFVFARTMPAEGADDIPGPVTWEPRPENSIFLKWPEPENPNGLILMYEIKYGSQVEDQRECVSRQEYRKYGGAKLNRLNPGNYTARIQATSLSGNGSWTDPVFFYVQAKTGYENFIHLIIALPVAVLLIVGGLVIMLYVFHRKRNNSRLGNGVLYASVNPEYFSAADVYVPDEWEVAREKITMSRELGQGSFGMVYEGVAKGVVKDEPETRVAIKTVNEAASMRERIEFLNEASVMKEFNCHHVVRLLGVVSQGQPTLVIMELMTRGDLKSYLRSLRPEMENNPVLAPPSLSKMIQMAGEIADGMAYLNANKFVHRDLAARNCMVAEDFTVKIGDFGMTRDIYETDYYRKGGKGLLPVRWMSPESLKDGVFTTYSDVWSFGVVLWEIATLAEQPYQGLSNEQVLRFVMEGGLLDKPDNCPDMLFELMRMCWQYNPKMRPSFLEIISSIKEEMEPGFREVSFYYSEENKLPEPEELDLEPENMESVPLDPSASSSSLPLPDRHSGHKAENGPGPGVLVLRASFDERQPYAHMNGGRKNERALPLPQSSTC

SMILES	IC50
COc1ccc2cc(Nc3ccnc(Nc4ccc(O[C@H]5C[C@H](N6CCOCC6)C5)cc4)n3)cnc2c1 [Compound 356, 4-(7-methoxy-3-quinolylamino)-2-{p-[(1r,3r)-3-morpholinocyclobutoxy]phenylamino}pyrimidine]	500 to 2000 nM
COc1cc(Nc2nccc(Nc3cnc4ccc(S(C)(=O)=O)cc4c3)n2)ccc1O[C@H]1C[C@H](N(C)C)C1 [Compound 329, 4-(6-mesyl-3-quinolylamino)-2-{3-methoxy-4-[(1r,3r)-3-(dimethylamino)cyclobutoxy]phenylamino}pyrimidine]	≤ 500 nM
Fc1cnc(Nc2ccc(O[C@H]3C[C@H](N4CCOCC4)C3)cc2)nc1Nc1cnc2ccccc2c1 [Compound 327, 5-fluoro-4-(3-quinolylamino)-2-{p-[(1r,3r)-3-morpholinocyclobutoxy]phenylamino}pyrimidine]	≤ 500 nM
COc1cc(Nc2nccc(Nc3cnc4ccccc4c3)n2)cc(C#N)c1O[C@H]1C[C@H](N(C)C)C1 [Compound 267, 3-methoxy-5-[4-(3-quinolylamino)-2-pyrimidinylamino]-2-[(1r,3r)-3-(dimethylamino)cyclobutoxy] benzonitrile]	≤ 500 nM
COc1cc(Nc2nccc(Nc3cnc4cc(F)c(F)cc4c3)n2)cnc1O[C@@H]1C[C@H](N(C)C)C1(C)C [Compound 254, 2-{6-[(1R,3S)-3-(dimethylamino)-2,2-dimethylcyclobutoxy]-5-methoxy-3-pyridylamino}-4-(6,7-difluoro-3-quinolylamino)pyrimidine]	≤ 500 nM
COc1cc(Nc2nccc(Nc3cnc4ccc(F)c(F)c4c3)n2)ccc1O[C@H]1C[C@@H](N(C)C)C1 [Compound 125, 4-(5,6-difluoro-3-quinolylamino)-2-{3-methoxy-4-[(1s,3s)-3-(dimethylamino)cyclobutoxy]phenylamino}pyrimidine]	≤ 500 nM
COc1cc(Nc2nccc(Nc3cnc4[nH]c(C)cc4c3)n2)ccc1O[C@H]1C[C@@H](N(C)C)C1 [Compound 283, 2-{3-methoxy-4-[(1s,3s)-3-(dimethylamino)cyclobutoxy]phenylamino}-4-(2-methyl-1H-1,7-diazainden-5-ylamino)pyrimidine]	≤ 500 nM
COc1cc(Nc2nccc(Nc3cnc4cc(F)c(F)cc4c3)n2)cnc1O[C@H]1C[C@@H](N(C)C)C1 [Compound 289, 4-(6,7-difluoro-3-quinolylamino)-2-{5-methoxy-6-[(1s,3s)-3-(dimethylamino)cyclobutoxy]-3-pyridylamino}pyrimidine]	500 to 2000 nM
COc1cc(Nc2nccc(Nc3cnc4cncc(F)c4c3)n2)ccc1O[C@H]1C[C@@H](N(C)C)C1 [Compound 88, N2-(4-((1s,3s)-3-(dimethylamino)cyclobutoxy)-3-methoxyphenyl)-N4-(5-fluoro-1,7-naphthyridin-3-yl)pyrimidine-2,4-diamine]	≤ 500 nM
CN1[C@@H]2COC[C@H]1C[C@@H](Oc1ccc(Nc3nccc(Nc4cnc5ccccc5c4)n3)cc1)C2 [Compound 29, 2-(p-{(1R,5S,7r)-9-methyl-3-oxa-9-azabicyclo[3.3.1]non-7-yloxy}phenylamino)-4-(3-quinolylamino)pyrimidine]	≤ 500 nM
COc1cc(Nc2ncc(F)c(Nc3cc4ccccc4nc3C(N)=O)n2)cnc1O[C@H]1C[C@@H](N(C)C)C1 [Compound 255, 3-(5-fluoro-2-{5-methoxy-6-[(1s,3s)-3-(dimethylamino)cyclobutoxy]-3-pyridylamino}-4-pyrimidinylamino)-2-quinolinecarboxamide]	≤ 500 nM
CN1[C@@H]2COC[C@H]1C[C@H](Oc1ccc(Nc3nccc(Nc4cnc5ccccc5c4)n3)cc1)C2 [Compound 30, 2-(p-{(1R,5S,7s)-9-methyl-3-oxa-9-azabicyclo[3.3.1]non-7-yloxy}phenylamino)-4-(3-quinolylamino)pyrimidine]	≤ 500 nM
COc1cc(Nc2nccc(Nc3ccc(Cl)nc3C(N)=O)n2)ccc1O[C@H]1C[C@@H](N(C)C)C1 [Compound 275, 6-chloro-3-(2-{3-methoxy-4-[(1s,3s)-3-(dimethylamino)cyclobutoxy]phenylamino}-4-pyrimidinylamino)-2-pyridinecarboxamide]	≤ 500 nM
COc1cc(Nc2nccc(Nc3cnc4ccccc4c3)c2F)ccc1O[C@H]1C[C@@H](N(C)C)C1 [Compound 264, 3-fluoro-2-{3-methoxy-4-[(1s,3s)-3-(dimethylamino)cyclobutoxy]phenylamino}-4-(3-quinolylamino)pyridine]	> 10000 nM
COc1cc(Nc2nccc(Nc3cc(Cl)cnc3C(N)=O)n2)ccc1O[C@H]1C[C@@H](N(C)C)C1 [Compound 198, 5-chloro-3-(2-{3-methoxy-4-[(1s,3s)-3-(dimethylamino)cyclobutoxy]phenylamino}-4-pyrimidinylamino)-2-pyridinecarboxamide]	≤ 500 nM
COc1cc(Nc2nccc(Nc3ncc4c(Cl)cccc4n3)n2)ccc1O[C@H]1C[C@@H](N(C)C)C1 [Compound 306, 4-(5-chloro-2-quinazolinylamino)-2-{3-methoxy-4-[(1s,3s)-3-(dimethylamino)cyclobutoxy]phenylamino}pyrimidine]	> 10000 nM

Next, values leading:

IC50	SMILES
≤ 500 nM	COc1cc(Nc2nccc(Nc3cnc4c(c3)C3CCC(C4)C3)n2)ccc1OCCCN1CCCCC1 (stereo not shown) [Compound 70, 4-{6-azatricyclo[7.2.1.0^2,7]dodeca-2(7),3,5-trien-4-ylamino}-2-[3-methoxy-4-(3-piperidinopropoxy)phenylamino] pyrimidine]
500 to 2000 nM	O=S1(=O)CCc2ncc(Nc3ccnc(Nc4ccc(OCCCN5CCOCC5)cc4)n3)cc2C1 [Compound 390, 3-{2-[p-(3-morpholinopropoxy)phenylamino]-4-pyrimidinylamino}-5,6,7,8-tetrahydro-6H,6H-6λ^6-thia-1-azanaphthalene-6,6-dione]
≤ 500 nM	COc1cc(N2CCC(C)(O)CC2)ncc1Nc1ncc(F)c(Nc2cc3ccccc3nc2C(N)=O)n1 [Compound 492, 3-{5-fluoro-2-[6-(4-hydroxy-4-methyl-1-piperidyl)-4-methoxy-3-pyridylamino]-4-pyrimidinylamino}-2-quinolinecarboxamide]
2000 to 10000 nM	Brc1ccc2cc(Nc3ccnc(Nc4ccc(OCCCN5CCOCC5)cc4)n3)cnc2c1 [Compound 409, 4-(7-bromo-3-quinolylamino)-2-[p-(3-morpholinopropoxy)phenylamino]pyrimidine]
≤ 500 nM	COc1cc(Nc2nccc(Nc3cnc4cccc(F)c4c3)n2)ccc1OCCCN1CCCCC1 [Compound 423, 4-(5-fluoro-3-quinolylamino)-2-[3-methoxy-4-(3-piperidinopropoxy)phenylamino]pyrimidine]
2000 to 10000 nM	CN1CC(Oc2ccc(Nc3nccc(Nc4cnc5ccc(Cl)cc5c4)n3)cc2)C1 [Compound 294, 4-(6-chloro-3-quinolylamino)-2-[p-(1-methyl-3-azetidinyloxy)phenylamino] pyrimidine]
≤ 500 nM	Clc1ccc2ncc(Nc3ccnc(Nc4ccc(O[C@H]5CC[C@@H](N6CCOCC6)CC5)cc4)n3)cc2c1 [Compound 311, 4-(6-chloro-3-quinolylamino)-2-{p-[(1s,4s)-4-morpholinocyclohexyloxy]phenylamino}pyrimidine]
≤ 500 nM	COc1cc(Nc2nccc(Nc3ccc4c(c3)CCCC4=O)n2)ccc1OCCCN1CCCCC1 [Compound 449, 6-{2-[3-methoxy-4-(3-piperidinopropoxy)phenylamino]-4-pyrimidinylamino}-3,4-dihydro-1(2H)-naphthalenone]
2000 to 10000 nM	Fc1ccc2cc(Nc3ccnc(Nc4ccc(OCCCN5CCOCC5)cc4)n3)cnc2c1F [Compound 403, 4-(7,8-difluoro-3-quinolylamino)-2-[p-(3-morpholinopropoxy)phenylamino]pyrimidine]
≤ 500 nM	COc1nc(N2CCN(C)CC2)ccc1Nc1nccc(Nc2cc3cccc(F)c3nc2O)n1 [Compound 90, 8-fluoro-3-{2-[2-methoxy-6-(4-methyl-1-piperazinyl)-3-pyridylamino]-4-pyrimidinylamino}-2-quinolinol]
≤ 500 nM	COc1cc(Nc2nccc(Nc3cc4cccc(F)c4nc3O)n2)cnc1OC1CCNCC1 [Compound 261, 8-fluoro-3-{2-[5-methoxy-6-(4-piperidyloxy)-3-pyridylamino]-4-pyrimidinylamino}-2-quinolinol]
500 to 2000 nM	COC1CCc2cc(Nc3ccnc(Nc4ccc(OCCCN5CCOCC5)cc4)n3)cnc2C1 (stereo not shown) [Compound 66, 4-(7-methoxy-5,6,7,8-tetrahydro-3-quinolylamino)-2-[p-(3-morpholinopropoxy)phenylamino] pyrimidine]
≤ 500 nM	O=S1(=O)CCN([C@H]2C[C@H](Oc3ccc(Nc4nccc(Nc5cnc6ccc(Br)cc6c5)n4)cc3)C2)CC1 [Compound 347]
≤ 500 nM	COc1cc(Nc2nccc(Nc3cc4ccccc4nc3OC)n2)ccc1OCCCN1CCCCC1 [Compound 108, 2-[3-methoxy-4-(3-piperidinopropoxy)phenylamino]-4-(2-methoxy-3-quinolylamino)pyrimidine]
≤ 500 nM	COc1cc(Nc2nccc(Nc3cnc4c(c3)CC[C@@H](C)C4)n2)ccc1OCCCN1CCCCC1 [Compound 71, 4-[(R)-7-methyl-5,6,7,8-tetrahydro-3-quinolylamino]-2-[3-methoxy-4-(3-piperidinopropoxy)phenylamino] pyrimidine]
≤ 500 nM	COc1cc(Nc2nccc(Nc3cnc4ccccc4c3)n2)ccc1OC1CN(C)C1 [Compound 37, 2-[3-methoxy-4-(1-methyl-3-azetidinyloxy)phenylamino]-4-(3-quinolylamino)pyrimidine]
≤ 500 nM	COc1nc(N2CCC(C)(O)CC2)ccc1Nc1nccc(Nc2cc3cccc(F)c3[nH]c2=O)n1 [Compound 231, 8-fluoro-3-{2-[6-(4-hydroxy-4-methyl-1-piperidyl)-2-methoxy-3-pyridylamino]-4-pyrimidinylamino}-1,2-dihydro-2-quinolinone]
≤ 500 nM	CC1(C)COc2cc(Nc3ccnc(Nc4ccc(OCCCN5CCOCC5)cc4)n3)cnc2O1 [Compound 65, 4-(3,3-dimethyl-2,3-dihydro-1,4-dioxa-5-aza-7-naphthylamino)-2-[p-(3-morpholinopropoxy)phenylamino]pyrimidine]

From patent US20250171431A1, “HETEROCYCLIC INHIBITORS OF IGF-1R FOR TREATMENT OF DISEASE” (HORIZON THERAPEUTICS IRELAND DAC, priority 2023, published 2025)
